Measured values from patent publication US20170226552A1, “METHODS FOR MODULATING PROTEIN GLY[…] OF R[…] THERAPEUTICS USING COBALT” (AbbVie Inc., priority 2014, published 2017).

Key:
Assay type in all cases: cell-based, Chinese Hamster
[1] = tested on: Cell Line 1 (CHO cell line expressing Antibody 1); assay: Cell Line 1 shake flask fedbatch culture: viable cell density and cell viability (trypan blue exclusion)
Protocol: (§1) Two recombinant Chinese Hamster Ovary (CHO) cell lines expressing two different recombinant glycoproteins were evaluated in 2 different culture vessels (shaker flasks and 3 L laboratory scale bioreactors). Cell Line 1 expressed humanized Antibody 1, and Cell Line 2 expressed Dual Variable Domain Immunoglobulin 1 (DVD1). Antibody 1 was an IgG1 glycoprotein, and DVD1 was an immunoglobulin glycoprotein with two variable domains as documented previously (Wu C. et al., (2007) Nat Biotechnol 25(11):1290-7).
(§2) Both cells lines were of CHO DUX-B11 origin based on a dhfr (dihydrofolate reductase) expression system. All cultures utilized the same chemically defined basal media (CDBM), and chemically-defined feed media (CDFM), except Cell Linel utilized a CDFM that was enriched at a 50% higher relative concentration. Each of the experimental conditions were supplemented with cobalt chloride (Sigma-Aldrich, St. Louis, Mo.) to evaluate its potential impact on the resulting N-glycan oligosaccharide profile. In preparation of the cultures, the cell lines were expanded through separate seed train inoculums to generate enough cell biomass for inoculation of multiple cultures. Process conditions utilized during the cultures were similar between each experimental condition and the respective non-cobalt supplemented control condition (Table 1).
(§3) Viable cell density (VCD) and cell viability values were measured through trypan blue exclusion via Cedex automated cell counters (Roche Applied Science, Indianapolis, Ind.), glucose and lactate values were measured with a ABL-805 (Radiometer Medical, Denmark) blood gas analyzer. Offline pH, dissolved oxygen (DO), and pCO2 measurements were also performed with a ABL-805 (Radiometer Medical, Denmark) blood gas analyzer. Osmolality was measured on a Multi-Osmette 2430 osmometer (Precision Systems, Natick, Mass.).

[2] = tested on: Cell Line 1 (CHO cell line expressing Antibody 1); assay: Cell Line 1 shake flask fedbatch culture: harvest titer of Antibody 1 (Poros A HPLC)
Protocol: as §1, §2
(§4) Antibody titers were measured from crude cell culture harvests on a Poros A™ (Life Technologies, Carlsbad, Calif.) affinity column using an HPLC system operating with a low pH, step elution gradient with detection at 280 nm. Absolute concentrations were assigned with respect to reference standard calibration curves.

[3] = tested on: Cell Line 1 (CHO cell line expressing Antibody 1); assay: Cell Line 1 shake flask fedbatch culture: N-glycan oligosaccharide profile of Antibody 1
Protocol: as §1
as §2, with “1). […]” for “1).”
(§5) Approximately 200 μg of Protein A purified samples from Cell Lines 1 and 2 were treated with N-glycanase at 37° C. for an overnight duration to remove the N-glycans from the protein. […] Following the derivatization step, the excess dye was removed using clean up cartridges and the samples were analyzed using normal phase HPLC with fluorescent detection. […] The labeled glycans were detected using a fluorescence detector with an excitation wavelength of 330 nm and an emission wavelength of 420 nm.

[4] = tested on: Cell Line 2 (CHO cell line expressing DVD1); assay: Cell Line 2 shake flask fedbatch culture: viable cell density and cell viability (trypan blue exclusion)
Protocol: as §1, §2, §3

[5] = tested on: Cell Line 2 (CHO cell line expressing DVD1); assay: Cell Line 2 shake flask fedbatch culture: harvest titer of DVD 1 (Poros A HPLC)
Protocol: as §1, §2, §4

[6] = tested on: Cell Line 2 (CHO cell line expressing DVD1); assay: Cell Line 2 shake flask fedbatch culture: N-glycan oligosaccharide profile of DVD1
Protocol: as §1, §2
Purified antibodies subjected to additional analytical characterization were purified using MabSelect™ Protein A (GE Healthcare, Piscataway, N.J.) using a low pH, step elution gradient, followed by buffer exchange using Spin Concentrator X UF columns (Corning Lifesciences, Tewksbury, Mass.), or equivalent, according to the manufacturer's recommended procedure.
Approximately 200 μg of Protein A purified samples from Cell Lines 1 and 2 were treated with N-glycanase at 37° C. for an overnight duration to remove the N-glycans from the protein. The protein was precipitated and the supernatant was taken for subsequent chemical derivatization of the reducing end of the released glycans with 2-aminobenzamide (2-AB) dye. Following the derivatization step, the excess dye was removed using clean up cartridges and the samples were analyzed using normal phase HPLC with fluorescent detection. Mobile phase A was 100% acetonitrile and mobile phase B was 50 mM ammonium formate at pH 4.4. The glycans were eluted from a polyamide column (Prozyme, Hayward, Calif.) using a shallow gradient. The labeled glycans were detected using a fluorescence detector with an excitation wavelength of 330 nm and an emission wavelength of 420 nm.

[7] = tested on: Cell Line 1 (CHO cell line expressing Antibody 1); assay: Cell Line 1 3 L laboratory-scale bioreactor culture: cell culture performance (VCD, viability, glucose, lactate, osmolality); settings: Cell Line 1, 3 L bioreactor, 50 μM CoCl2
Protocol: as §1, §2, §3
3 L scale-down model bioreactors were utilized to verify the impact of CoCl2 on the resulting protein glycosylation profiles in Cell Line 1. Cell culture process performance indicators were monitored and measured throughout the respective cultures. Viable cell density, cell viability, harvest titer, and harvest N-glycan oligosaccharide data was measured and reported. FIG. 4 highlights the cell culture performance results observed through the use of 50 μM CoCl2 targeted supplementation into the CDBM and CDFM. Similar to the shake flask results, there was a modest drop in the viable cell density profile (FIG. 4A), but no change in the viability profile in the 50 μM CoCl2 supplemented culture (FIG. 4B). […] Similar to the shake flask results using 50 μM CoCl2, there was a nominal drop in the final harvest titer with the cobalt supplemented culture achieving a final harvest titer 10% below that of the unsupplemented control (FIG. 4F).

[8] = tested on: Cell Line 1 (CHO cell line expressing Antibody 1); assay: Cell Line 1 3 L laboratory-scale bioreactor culture: harvest titer of Antibody 1; settings: Cell Line 1, 3 L bioreactor, 50 μM CoCl2
Protocol: as §1
(§6) Both cells lines were of CHO DUX-B11 origin based on a dhfr (dihydrofolate reductase) expression system. […]
Antibody titers were measured from crude cell culture harvests on a Poros A™ (Life Technologies, Carlsbad, Calif.) affinity column using an HPLC system operating with a low pH, step elution gradient with detection at 280 nm. […]
3 L scale-down model bioreactors were utilized to verify the impact of CoCl2 on the resulting protein glycosylation profiles in Cell Line 1. Cell culture process performance indicators were monitored and measured throughout the respective cultures. Viable cell density, cell viability, harvest titer, and harvest N-glycan oligosaccharide data was measured and reported. […]

[9] = tested on: Cell Line 1 (CHO cell line expressing Antibody 1); assay: Cell Line 1 3 L laboratory-scale bioreactor culture: N-glycan oligosaccharide profile of Antibody 1
Protocol: as §1, §6, §5
3 L scale-down model bioreactors were utilized to verify the impact of CoCl2 on the resulting protein glycosylation profiles in Cell Line 1. Cell culture process performance indicators were monitored and measured throughout the respective cultures. […]

[10] = Cell Line 2, shake flask, 100 μM cobalt
[11] = Cell Line 2, shake flask, 1-100 μM CoCl2

With `[Cl-].[Cl-].[Co+2]` [CoCl2, cobalt (II) chloride] the “concentration up to which there was a negligible impact on cell growth” value ([1]; Cell Line 1) was 50 µM, the “peak VCD compared to the control” value ([1]; Cell Line 1, shake flask, 1, 5, and 25 μM) was “approximately similar” and the “peak VCD” value ([1]; Cell Line 1, shake flask, cobalt 50 μM in CDBM and CDFM) was “approximately 9.4×10^6 cells/mL”. For the same molecule, the “peak VCD” value ([1]; Cell Line 1, shake flask, cobalt 100 μM in CDBM and CDFM) was ~7.0×10^6 cells/mL, the “cell viability at harvest compared to the unsupplemented control” value ([1]; Cell Line 1, shake flask, each cobalt concentration evaluated (1-100 μM), harvest Day 14) was “slightly higher cell viability” and the “concentration up to which there was a negligible impact on recombinant protein productivity” value ([2]; Cell Line 1) was 50 µM. For the same molecule, the “drop in productivity (harvest titer of Antibody 1) vs control” value ([2]; Cell Line 1, shake flask, 100 μM cobalt) was 21%, the “impact on recombinant antibody productivity (harvest titer of Antibody 1)” value ([2]; Cell Line 1, shake flask, 1, 5, 25, and 50 μM cobalt) was “negligible impact” and the “change in relative abundance of NGA2F-GlcNAc vs unsupplemented control” value ([3]; 1-100 μM CoCl2) was “statistically significant decreases”. The “change in NA2F species vs unsupplemented control” value ([3]; 1-100 μM CoCl2, much lower relative amount than NA1F) was “increased”, the “change in NA1F species vs unsupplemented control” value ([3]; concentration-dependent, 1-100 μM CoCl2) was “increase” and the “concentration up to which there was a negligible impact on cell growth” value ([4]; Cell Line 2) was 25 µM. The “peak VCD compared to the control” value ([4]; Cell Line 2, shake flask, 1, 5, and 25 μM) was “approximately similar”, the “peak VCD” value ([4]; Cell Line 2, shake flask, cobalt 50 μM in CDBM and CDFM) was “approximately 10.6×10^6 cells/mL” and the “peak VCD” value ([4]; Cell Line 2, shake flask, cobalt 100 μM in CDBM and CDFM) was ~6.7×10^6 cells/mL. The “cell viability over time and at harvest” value ([4]; Cell Line 2, shake flask, higher cobalt media concentrations, after Day 6) was “higher cell viability”, the “concentration up to which there was a negligible impact on recombinant protein productivity” value ([5]; Cell Line 2) was 5 µM and the “decrease in productivity (harvest titer of DVD 1) vs control” value (“decrease in productivity” below) ([5]; Cell Line 2, shake flask, 25 μM cobalt) was 20%. The “decrease in productivity” value ([5]; Cell Line 2, shake flask, 50 μM cobalt) was 35%, the “decrease in productivity” value [5, 10] was 47% and the “impact on recombinant antibody productivity (harvest titer of DVD 1)” value ([5]; Cell Line 2, shake flask, 1 and 5 μM cobalt) was “negligible impact”. The “increase in NA1F glycans vs unsupplemented control” value [6, 10] was 6.2%, the “change in relative abundance of NGA2F-GlcNAc vs unsupplemented control” value [6, 11] was “statistically significant decreases” and the “change in relative abundance of high mannose glycans vs unsupplemented control” value [6, 11] was “statistically significant decreases”. The “change in NA2F species vs unsupplemented control” value ([6]; Cell Line 2, shake flask, 1-100 μM CoCl2, much lower relative amount than NA1F) was “increased”, the “maximum absolute percentage increase in galactosylated N-glycans relative to the unsupplemented control” value ([6]; Cell Line 2, shaker flask cultures) was 6% and the “glucose levels in the culture media vs unsupplemented control over time” value [7] was “approximately similar”. The “higher lactate concentration in culture media vs unsupplemented control” value [7] was no more than 0.5 g/L, the “osmolality levels vs unsupplemented control” value [7] was “slightly elevated” and the “viability profile vs unsupplemented control” value [7] was “no change”. For the same molecule, the “viable cell density profile vs unsupplemented control” value [7] was “modest drop”, the “final harvest titer below that of the unsupplemented control” value [8] was 10% and the “increase in NA1F species vs unsupplemented control” value ([9]; Cell Line 1, 3 L bioreactor, 50 μM CoCl2) was “approximately 8%”. The “maximum absolute percentage increase in galactosylated N-glycans relative to the unsupplemented control” value ([9]; Cell Line 1, 3 L scale bioreactors) was 8%.
